Source: patent publication US10717716B2, “1,3,4-oxadiazole derivative compounds as histone deacetylase 6 inhibitor, and the pharmaceutical composition comprising the same” (Chong Kun Dang Pharmaceutical Corp., priority 2015, dated 2020)
One block for each compound: values may come before it.

Biological target: T1, human recombinant HDAC6 (Homo sapiens, UniProt Q9UBN7)
T1 construct: purchased Calbiochem 382180
T1 sequence (Q9UBN7 1-1215): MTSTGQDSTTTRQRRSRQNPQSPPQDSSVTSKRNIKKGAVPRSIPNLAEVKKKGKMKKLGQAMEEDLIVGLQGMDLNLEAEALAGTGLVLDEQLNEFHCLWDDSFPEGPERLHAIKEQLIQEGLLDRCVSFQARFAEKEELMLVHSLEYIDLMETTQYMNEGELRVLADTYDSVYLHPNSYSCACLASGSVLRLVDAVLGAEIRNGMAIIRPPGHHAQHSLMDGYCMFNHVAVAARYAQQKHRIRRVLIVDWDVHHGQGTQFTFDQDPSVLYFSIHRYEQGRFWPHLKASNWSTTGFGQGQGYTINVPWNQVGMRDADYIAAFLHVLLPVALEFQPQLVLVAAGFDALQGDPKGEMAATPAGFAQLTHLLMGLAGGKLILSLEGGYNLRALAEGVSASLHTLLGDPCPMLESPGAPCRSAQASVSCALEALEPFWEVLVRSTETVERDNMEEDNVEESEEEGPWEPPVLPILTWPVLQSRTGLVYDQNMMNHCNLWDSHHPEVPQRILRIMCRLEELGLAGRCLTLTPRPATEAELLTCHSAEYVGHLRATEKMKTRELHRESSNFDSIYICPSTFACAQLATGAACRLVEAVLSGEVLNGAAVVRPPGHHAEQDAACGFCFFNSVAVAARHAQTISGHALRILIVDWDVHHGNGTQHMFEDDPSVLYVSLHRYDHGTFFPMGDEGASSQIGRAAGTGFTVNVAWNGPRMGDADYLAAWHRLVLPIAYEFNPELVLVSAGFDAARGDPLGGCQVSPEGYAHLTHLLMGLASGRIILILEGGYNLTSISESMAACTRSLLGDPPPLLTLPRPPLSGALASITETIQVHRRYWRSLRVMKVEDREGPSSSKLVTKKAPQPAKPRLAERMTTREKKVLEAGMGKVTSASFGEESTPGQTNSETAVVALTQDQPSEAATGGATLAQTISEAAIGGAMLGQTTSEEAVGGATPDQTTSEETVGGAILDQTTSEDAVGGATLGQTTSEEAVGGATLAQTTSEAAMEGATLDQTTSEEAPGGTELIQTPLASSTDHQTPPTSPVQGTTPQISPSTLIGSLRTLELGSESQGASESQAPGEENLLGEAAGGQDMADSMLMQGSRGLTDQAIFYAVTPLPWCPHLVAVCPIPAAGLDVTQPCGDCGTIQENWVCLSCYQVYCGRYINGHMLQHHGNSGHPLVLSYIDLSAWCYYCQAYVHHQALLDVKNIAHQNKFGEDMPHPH
Test: HDAC6 enzyme activity inhibition assay (HDAC Fluorimetric Drug Discovery Kit)
Assay type: biochemical
Conditions: for HDAC6 selectivity (fold): HDAC6 over HDAC1; for IC50: human recombinant HDAC6, same protocol as HDAC1, read-out: HDAC6
In short: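 Human recombinant HDAC1 or HDAC6 (0.3 μg) reacted with 10 μM Fluor de Lys-SIRT1 substrate and 5-fold compound dilutions for 60 min at 30 °C. Developer II added for 30 min, fluorescence read at Ex 360/Em 460; IC50 calculated from the readings.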

SMILES: O=C(N1CCN(c2ccccn2)CC1)N(Cc1ccc(-c2nnc(C(F)(F)F)o2)cc1)c1ccccc1 [Compound 21403, N-phenyl-4-(pyridin-2-yl)-N-(4-(5-(trifluoromethyl)-1,3,4-oxadiazol-2-yl)benzyl)piperazine-1-carboxamide]
- HDAC6 selectivity (fold): 30 fold
- IC50: 334 nM

SMILES: CCOC(=O)CN1[C@H](C)CN(C(=O)N(Cc2ccc(-c3nnc(C(F)(F)F)o3)cc2)c2ccccc2)C[C@@H]1C [Compound 21404, Ethyl 2-((2S,6R)-2,6-dimethyl-4-(phenyl(4-(5-(trifluoromethyl)-1,3,4-oxadiazol-2-yl)benzyl)carbamoyl)piperazin-1-yl)acetate]
- HDAC6 selectivity (fold): 40 fold
- IC50: 247 nM

SMILES: O=C(N1CCOCC1)N(Cc1ccc(-c2nnc(C(F)(F)F)o2)cc1)c1cccc(C(F)(F)F)c1 [Compound 21405, N-(4-(5-(trifluoromethyl)-1,3,4-oxadiazol-2-yl)benzyl)-N-(3-(trifluoromethyl)phenyl)morpholine-4-carboxamide]
- HDAC6 selectivity (fold): 28 fold
- IC50: 354 nM

SMILES: O=C(N1CCOCC1)N(Cc1ccc(-c2nnc(C(F)(F)F)o2)cc1)c1ccc(C(F)(F)F)cc1 [Compound 21406, N-(4-(5-(trifluoromethyl)-1,3,4-oxadiazol-2-yl)benzyl)-N-(4-(trifluoromethyl)phenyl)morpholine-4-carboxamide]
- HDAC6 selectivity (fold): 16 fold
- IC50: 619 nM

SMILES: O=C(N1CCOCC1)N(Cc1ccc(-c2nnc(C(F)(F)F)o2)cc1)c1cccc(C(F)(F)F)n1 [Compound 21408, N-(4-(5-(trifluoromethyl)-1,3,4-oxadiazol-2-yl)benzyl)-N-(6-(trifluoromethyl)pyridin-2-yl)morpholine-4-carboxamide]
- HDAC6 selectivity (fold): 14 fold
- IC50: 706 nM

SMILES: O=C(N1CCS(=O)(=O)CC1)N(Cc1ccc(-c2nnc(C(F)(F)F)o2)cc1)c1ccccn1 [Compound 21409, N-(pyridin-2-yl)-N-(4-(5-(trifluoromethyl)-1,3,4-oxadiazol-2-yl)benzyl)thiomorpholine-4-carboxamide 1,1-dioxide]
- HDAC6 selectivity (fold): 33 fold
- IC50: 304 nM

SMILES: O=C(N1CCS(=O)(=O)CC1)N(Cc1ccc(-c2nnc(C(F)(F)F)o2)cc1Cl)c1ccccc1 [Compound 21410, N-(2-chloro-4-(5-(trifluoromethyl)-1,3,4-oxadiazol-2-yl)benzyl)-N-phenylthiomorpholine-4-carboxamide 1,1-dioxide]
- HDAC6 selectivity (fold): 12 fold
- IC50: 840 nM

SMILES: O=C(N1CCS(=O)(=O)CC1)N(Cc1ccc(-c2nnc(C(F)F)o2)cc1Cl)c1ccccc1 [Compound 21411, N-(2-chloro-4-(5-(difluoromethyl)-1,3,4-oxadiazol-2-yl)benzyl)-N-phenylthiomorpholine-4-carboxamide 1,1-dioxide]
- HDAC6 selectivity (fold): 5 fold
- IC50: 2150 nM

SMILES: O=C(N1CCS(=O)(=O)CC1)N(Cc1ccc(-c2nnc(C(F)(F)F)o2)cc1)c1ccc(C(F)(F)F)cc1 [Compound 21412, N-(4-(5-(trifluoromethyl)-1,3,4-oxadiazol-2-yl)benzyl)-N-(4-(trifluoromethyl)phenyl)thiomorpholine-4-carboxamide 1,1-dioxide]
- HDAC6 selectivity (fold): 21 fold
- IC50: 470 nM

SMILES: CC(C)(C)OC(=O)N1CC2(CCN(C(=O)N(Cc3ccc(-c4nnc(C(F)(F)F)o4)cc3)c3ccccc3)CC2)C1 [Compound 21416, Ten-butyl 7-(phenyl(4-(5-(trifluoromethyl)-1,3,4-oxadiazol-2-yl)benzyl)carbamoyl)-2,7-diazaspiro[3.5]nonane-2-carboxylate]
- HDAC6 selectivity (fold): 6 fold
- IC50: 1590 nM

Other lines, results leading:

- HDAC6 selectivity (fold): 45 fold
- IC50: 222 nM
SMILES: CCCN(C)C(=O)N(Cc1ccc(-c2nnc(C(F)(F)F)o2)cc1)c1ccccc1 [Compound 21402, 1-Methyl-3-phenyl-1-propyl-3-(4-(5-(trifluoromethyl)-1,3,4-oxadiazol-2-yl)benzyl)urea]

- HDAC6 selectivity (fold): 71 fold
- IC50: 140 nM
SMILES: O=C(N1CCOCC1)N(Cc1ccc(-c2nnc(C(F)(F)F)o2)cc1)c1cccc(F)c1 [Compound 21407, N-(3-fluorophenyl)-N-(4-(5-(trifluoromethyl)-1,3,4-oxadiazol-2-yl)benzyl)morpholine-4-carboxamide]

- HDAC6 selectivity (fold): 41 fold
- IC50: 246 nM
SMILES: O=C(N1CCS(=O)(=O)CC1)N(Cc1ccc(-c2nnc(C(F)(F)F)o2)cc1)c1ccc(Br)cc1 [Compound 21413, N-(4-bromophenyl)-N-(4-(5-(trifluoromethyl)-1,3,4-oxadiazol-2-yl)benzyl)thiomorpholine-4-carboxamide 1,1-dioxide]

- HDAC6 selectivity (fold): 79 fold
- IC50: 126 nM
SMILES: O=C(N1CCOCC1)N(Cc1ccc(-c2nnc(C(F)(F)F)o2)cc1)c1ccc(F)cc1F [Compound 21414, N-(2,4-difluorophenyl)-N-(4-(5-(trifluoromethyl)-1,3,4-oxadiazol-2-yl)benzyl)morpholine-4-carboxamide]

- HDAC6 selectivity (fold): 33 fold
- IC50: 299 nM
SMILES: Cc1ccc(N(Cc2ccc(-c3nnc(C(F)(F)F)o3)cc2)C(=O)N2CCOCC2)c(F)c1 [Compound 21415, N-(2-fluoro-4-methylphenyl)-N-(4-(5-(trifluoromethyl)-1,3,4-oxadiazol-2-yl)benzyl)morpholine-4-carboxamide]

- HDAC6 selectivity (fold): 143 fold
- IC50: 70 nM
SMILES: O=C(N1CCC2(CC1)CNC2)N(Cc1ccc(-c2nnc(C(F)(F)F)o2)cc1)c1ccccc1 [Compound 21417, N-phenyl-N-(4-(5-(trifluoromethyl)-1,3,4-oxadiazol-2-yl)benzyl)-2,7-diazaspiro[3.5]nonane-7-carboxamide]

- HDAC6 selectivity (fold): 65 fold
- IC50: 154 nM
SMILES: CC(=O)N1CC2(CCN(C(=O)N(Cc3ccc(-c4nnc(C(F)(F)F)o4)cc3)c3ccccc3)CC2)C1 [Compound 21418, 2-Acetyl-N-phenyl-N-(4-(5-(trifluoromethyl)-1,3,4-oxadiazol-2-yl)benzyl)-2,7-diazaspiro[3.5]nonane-7-carboxamide]

- HDAC6 selectivity (fold): 130 fold
- IC50: 77 nM
SMILES: CS(=O)(=O)N1CC2(CCN(C(=O)N(Cc3ccc(-c4nnc(C(F)(F)F)o4)cc3)c3ccccc3)CC2)C1 [Compound 21419, 2-(Methylsulfonyl)-N-phenyl-N-(4-(5-(trifluoromethyl)-1,3,4-oxadiazol-2-yl)benzyl)-2,7-diazaspiro[3.5]nonane-7-carboxamide]

- HDAC6 selectivity (fold): 143 fold
- IC50: 70 nM
SMILES: CN1CC2(CCN(C(=O)N(Cc3ccc(-c4nnc(C(F)(F)F)o4)cc3)c3ccccc3)CC2)C1 [Compound 21420, 2-Methyl-N-phenyl-N-(4-(5-(trifluoromethyl)-1,3,4-oxadiazol-2-yl)benzyl)-2,7-diazaspiro[3.5]nonane-7-carboxamide]

- HDAC6 selectivity (fold): 149 fold
- IC50: 67 nM
SMILES: CCN1CC2(CCN(C(=O)N(Cc3ccc(-c4nnc(C(F)(F)F)o4)cc3)c3ccccc3)CC2)C1 [Compound 21421, 2-Ethyl-N-phenyl-N-(4-(5-(trifluoromethyl)-1,3,4-oxadiazol-2-yl)benzyl)-2,7-diazaspiro[3.5]nonane-7-carboxamide]

- HDAC6 selectivity (fold): 95 fold
- IC50: 105 nM
SMILES: CC(=O)N1CCCN(C(=O)N(Cc2ccc(-c3nnc(C(F)(F)F)o3)cc2)c2ccccc2)CC1 [Compound 21422, 4-Acetyl-N-phenyl-N-(4-(5-(trifluoromethyl)-1,3,4-oxadiazol-2-yl)benzyl)-1,4-diazepane-1-carboxamide]

- HDAC6 selectivity (fold): 377 fold
- IC50: 26.5 nM
SMILES: CN1CCCN(C(=O)N(Cc2ccc(-c3nnc(C(F)F)o3)cc2F)c2ccccc2)CC1 [Compound 21423, N-(4-(5-(difluoromethyl)-1,3,4-oxadiazol-2-yl)-2-fluorobenzyl)-4-methyl-N-phenyl-1,4-diazepane-1-carboxamide]

- HDAC6 selectivity (fold): 54 fold
- IC50: 184 nM
SMILES: O=C(N1CCOCC1)N(Cc1ccc(-c2nnc(C(F)(F)F)o2)cc1)c1ccccn1 [Compound 21424, N-(pyridin-2-yl)-N-(4-(5-(trifluoromethyl)-1,3,4-oxadiazol-2-yl)benzyl)morpholine-4-carboxamide]
